In ChEMBL document CHEMBL1201861, “Genomics of Drug Sensitity in Cancer screening data, Wellcome Trust Sanger Institute”:
pIC50: −log10 of the molar value.

How the values were obtained:
DMS-153 = assay: cells; type: functional, cell-based, Homo sapiens; conditions: Homo sapiens, DMS-153
Description: SANGER: Inhibition of human DMS-153 cell growth in a cell viability assay.

BOKU = assay: cells; type: functional, cell-based; conditions: Homo sapiens;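 note: growth inhibition of the human BOKU cell line, read out by a cell viability assay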
Description: SANGER: Inhibition of human BOKU cell growth in a cell viability assay.

MRK-nu-1 = assay: cells; type: functional, cell-based, Homo sapiens; conditions: Homo sapiens, MRK-nu-1;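 note: cell viability assay measuring growth suppression of human MRK-nu-1 cells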
Description: SANGER: Inhibition of human MRK-nu-1 cell growth in a cell viability assay.

HuTu80 = assay: cells; type: functional, cell-based, Homo sapiens, HUTU-80; conditions: Homo sapiens, HuTu80;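 note: growth inhibition of HuTu80 human cells, determined with a cell viability readout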
Description: SANGER: Inhibition of human HUTU-80 cell growth in a cell viability assay.

KARPAS-422 = assay: cells; type: functional, cell-based, Homo sapiens; conditions: Homo sapiens, KARPAS-422
Description: SANGER: Inhibition of human KARPAS-422 cell growth in a cell viability assay.

RPMI-6666 = assay: cells; type: functional, cell-based, Homo sapiens; conditions: Homo sapiens, RPMI-6666
Description: SANGER: Inhibition of human RPMI-6666 cell growth in a cell viability assay.

TE-441-T = assay: cells; type: functional, cell-based, Homo sapiens; conditions: Homo sapiens, TE-441-T
Description: SANGER: Inhibition of human TE-441-T cell growth in a cell viability assay.

BC1 cell line = assay: SANGER: Inhibition of human BC-1 cell growth in a cell viability assay.; type: functional, cell-based; conditions: Homo sapiens, BC1
NCI-H748 = assay: cells; type: functional, cell-based, Homo sapiens; conditions: Homo sapiens, NCI-H748;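 note: growth inhibition of NCI-H748 cells, measured by a cell viability assay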
Description: SANGER: Inhibition of human NCI-H748 cell growth in a cell viability assay.

YT = assay: cells; type: functional, cell-based, Homo sapiens; conditions: Homo sapiens, YT
Description: SANGER: Inhibition of human YT cell growth in a cell viability assay.

KMS-12-PE = assay: cells; type: functional, cell-based, Homo sapiens; conditions: Homo sapiens, KMS-12-PE;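 note: growth inhibition of human KMS-12-PE cells, measured with a cell viability assay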
Description: SANGER: Inhibition of human KMS-12-PE cell growth in a cell viability assay.

MHH-CALL-2 = assay: cells; type: functional, cell-based, Homo sapiens; conditions: Homo sapiens, MHH-CALL-2;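 note: growth inhibition of the cell line, read out in a cell viability assay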
Description: SANGER: Inhibition of human MHH-CALL-2 cell growth in a cell viability assay.

P31-FUJ = assay: cells; type: functional, cell-based, Homo sapiens; conditions: Homo sapiens, P31-FUJ;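 note: growth inhibition of P31-FUJ cells, read out with a viability assay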
Description: SANGER: Inhibition of human P31-FUJ cell growth in a cell viability assay.

TALL-1 = assay: cells; type: functional, cell-based, Homo sapiens; conditions: Homo sapiens, TALL-1;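 note: growth inhibition of cultured human TALL-1 cells, read out by a cell viability assay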
Description: SANGER: Inhibition of human TALL-1 cell growth in a cell viability assay.

A204 = assay: cells; type: functional, cell-based; conditions: Homo sapiens;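 note: growth inhibition of human A204 cells, read out with a cell viability assay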
Description: SANGER: Inhibition of human A204 cell growth in a cell viability assay.

HuP-T3 = assay: cells; type: functional, cell-based; conditions: Homo sapiens;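 note: HuP-T3 cell growth inhibition, read out with a cell viability assay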
Description: SANGER: Inhibition of human HuP-T3 cell growth in a cell viability assay.

MKN-7 = assay: cells; type: functional, cell-based; conditions: Homo sapiens;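 note: growth inhibition of MKN-7 cells, read out with a cell viability assay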
Description: SANGER: Inhibition of human MKN7 cell growth in a cell viability assay.

NCI-H2405 = assay: cells; type: functional, cell-based; conditions: Homo sapiens;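 note: growth inhibition of the human cell line, read out with a cell viability assay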
Description: SANGER: Inhibition of human NCI-H2405 cell growth in a cell viability assay.

LN-405 = assay: cells; type: functional, cell-based; conditions: Homo sapiens
Description: SANGER: Inhibition of human LN-405 cell growth in a cell viability assay.

ME-180 = assay: cells; type: functional, cell-based; conditions: Homo sapiens;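 note: cell viability assay measuring growth inhibition of ME-180 cells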
Description: SANGER: Inhibition of human ME-180 cell growth in a cell viability assay.

UACC-893 = assay: cells; type: functional, cell-based; conditions: Homo sapiens
Description: SANGER: Inhibition of human UACC-893 cell growth in a cell viability assay.

EFO-21 = assay: cells; type: functional, cell-based; conditions: Homo sapiens;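 note: growth inhibition of EFO-21 cells measured with a viability assay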
Description: SANGER: Inhibition of human EFO-21 cell growth in a cell viability assay.

HCC1954 = assay: cells; type: functional, cell-based; conditions: Homo sapiens;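 note: growth inhibition of human HCC1954 cells, read out with a cell viability assay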
Description: SANGER: Inhibition of human HCC1954 cell growth in a cell viability assay.

8305C = assay: cells; type: functional, cell-based; conditions: Homo sapiens
Description: SANGER: Inhibition of human 8305C cell growth in a cell viability assay.

SW48 = assay: cells; type: functional, cell-based; conditions: Homo sapiens;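 note: growth inhibition of SW48 cells, read out with a cell viability assay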
Description: SANGER: Inhibition of human SW48 cell growth in a cell viability assay.

BEN = assay: cells; type: functional, cell-based; conditions: Homo sapiens;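 note: growth inhibition of the BEN cell line, read out with a cell viability assay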
Description: SANGER: Inhibition of human BEN cell growth in a cell viability assay.

KYSE-410 = assay: cells; type: functional, cell-based; conditions: Homo sapiens;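 note: growth inhibition of KYSE-410 cells, measured through a cell viability readout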
Description: SANGER: Inhibition of human KYSE-410 cell growth in a cell viability assay.

EW-22 = assay: cells; type: functional, cell-based; conditions: Homo sapiens;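 note: growth inhibition of the EW-22 cell line, measured with a cell viability readout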
Description: SANGER: Inhibition of human EW-22 cell growth in a cell viability assay.

ABC-1 = assay: cells; type: functional, cell-based; conditions: Homo sapiens;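 note: growth inhibition of human ABC-1 cells, read out by a cell viability assay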
Description: SANGER: Inhibition of human ABC-1 cell growth in a cell viability assay.

Detroit 562 = assay: cells; type: functional, cell-based; conditions: Homo sapiens;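 note: growth inhibition of human Detroit 562 cells, read out by a cell viability assay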
Description: SANGER: Inhibition of human Detroit562 cell growth in a cell viability assay.

KP-N-YN = assay: cells; type: functional, cell-based; conditions: Homo sapiens;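 note: growth inhibition of KP-N-YN cells, read out with a cell viability assay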
Description: SANGER: Inhibition of human KP-N-YN cell growth in a cell viability assay.

639-V = assay: cells; type: functional, cell-based; conditions: Homo sapiens;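 note: growth inhibition of 639-V cells, read out with a cell viability assay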
Description: SANGER: Inhibition of human 639-V cell growth in a cell viability assay.

SCC-4 = assay: cells; type: functional, cell-based; conditions: Homo sapiens;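 note: growth inhibition of human SCC-4 cells, read out as cell viability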
Description: SANGER: Inhibition of human SCC-4 cell growth in a cell viability assay.

SN12C = assay: cells; type: functional, cell-based; conditions: Homo sapiens;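 note: growth inhibition of human SN12C cells, measured by a cell viability assay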
Description: SANGER: Inhibition of human SN12C cell growth in a cell viability assay.

786-0 = assay: cells; type: functional, cell-based; conditions: Homo sapiens
Description: SANGER: Inhibition of human 786-0 cell growth in a cell viability assay.

UO-31 = assay: cells; type: functional, cell-based; conditions: Homo sapiens
Description: SANGER: Inhibition of human U031 cell growth in a cell viability assay.

NCI-H810 = assay: cells; type: functional, cell-based; conditions: Homo sapiens;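 note: IC50 reflects inhibition of cancer cell line growth, read out with a cell viability assay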
Description: SANGER: Inhibition of human NCI-H810 cell growth in a cell viability assay.

VM-CUB-1 = assay: cells; type: functional, cell-based; conditions: Homo sapiens;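 note: cell viability assay measuring growth inhibition of the human VM-CUB-1 cell line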
Description: SANGER: Inhibition of human VM-CUB-1 cell growth in a cell viability assay.

SBC-5 = assay: cells; type: functional, cell-based; conditions: Homo sapiens;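 note: cell viability assay read-out, IC50 is the concentration that inhibits growth of the cells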
Description: SANGER: Inhibition of human SBC-5 cell growth in a cell viability assay.

CP50-MEL-B = assay: cells; type: functional, cell-based; conditions: Homo sapiens;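 note: growth inhibition of the human cell line, measured with a cell viability read-out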
Description: SANGER: Inhibition of human CP50-MEL-B cell growth in a cell viability assay.

MEL-HO = assay: cells; type: functional, cell-based; conditions: Homo sapiens
Description: SANGER: Inhibition of human MEL-HO cell growth in a cell viability assay.

MDA-MB-157 = assay: cells; type: functional, cell-based; conditions: Homo sapiens
Description: SANGER: Inhibition of human MDA-MB-157 cell growth in a cell viability assay.

T-24 = assay: cells; type: functional, cell-based; conditions: Homo sapiens;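 note: growth inhibition of T-24 cells, read out with a cell viability assay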
Description: SANGER: Inhibition of human T-24 cell growth in a cell viability assay.

Calu-3 = assay: cells; type: functional, cell-based; conditions: Homo sapiens;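 note: growth inhibition of human Calu-3 cells, determined with a cell viability assay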
Description: SANGER: Inhibition of human Calu-3 cell growth in a cell viability assay.

HOP-92 = assay: cells; type: functional, cell-based; conditions: Homo sapiens;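 note: cell viability readout, with IC50 reflecting inhibition of HOP-92 cell growth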
Description: SANGER: Inhibition of human HOP-92 cell growth in a cell viability assay.

SiHa = assay: cells; type: functional, cell-based; conditions: Homo sapiens;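 note: Viability-based readout of growth inhibition in SiHa cells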
Description: SANGER: Inhibition of human SiHa cell growth in a cell viability assay.

A-431 = assay: cells; type: functional, cell-based; conditions: Homo sapiens;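 note: growth inhibition of A-431 cells, determined with a cell viability read-out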
Description: SANGER: Inhibition of human A431 cell growth in a cell viability assay.

TYK-nu = assay: cells; type: functional, cell-based; conditions: Homo sapiens;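 note: growth inhibition of human TYK-nu cells, read out by a cell viability assay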
Description: SANGER: Inhibition of human TYK-nu cell growth in a cell viability assay.

PANC-03-27 = assay: cells; type: functional, cell-based; conditions: Homo sapiens
Description: SANGER: Inhibition of human PANC-03-27 cell growth in a cell viability assay.

RO82-W-1 = assay: cells; type: functional, cell-based; conditions: Homo sapiens;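 note: growth inhibition of human RO82-W-1 cells, measured with a cell viability assay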
Description: SANGER: Inhibition of human RO82-W-1 cell growth in a cell viability assay.

COLO-741 = assay: cells; type: functional, cell-based; conditions: Homo sapiens
Description: SANGER: Inhibition of human COLO-741 cell growth in a cell viability assay.

HuO-3N1 = assay: cells; type: functional, cell-based; conditions: Homo sapiens;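 note: cell viability readout used to measure how strongly compounds suppress proliferation of human HuO-3N1 cells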
Description: SANGER: Inhibition of human HuO-3N1 cell growth in a cell viability assay.

MC-IXC = assay: cells; type: functional, cell-based; conditions: Homo sapiens;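 note: growth inhibition of MC-IXC cells, read out with a cell viability assay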
Description: SANGER: Inhibition of human MC-IXC cell growth in a cell viability assay.

C32 = assay: cells; type: functional, cell-based; conditions: Homo sapiens;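 note: cell viability assay, with IC50 reflecting inhibition of C32 cell growth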
Description: SANGER: Inhibition of human C32 cell growth in a cell viability assay.

Panc1005 = assay: cells; type: functional, cell-based; conditions: Homo sapiens;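 note: growth inhibition of human PANC-10-05 cells, measured by a cell viability assay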
Description: SANGER: Inhibition of human PANC-10-05 cell growth in a cell viability assay.

MKN-28 = assay: cells; type: functional, cell-based; conditions: Homo sapiens;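 note: cell viability assay read-out, IC50 reflects suppression of growth of human MKN-28 cells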
Description: SANGER: Inhibition of human MKN28 cell growth in a cell viability assay.

Structure (SMILES): C=CC(=O)N1CCCC(Nc2nc(Nc3ccc(N(C)C(=O)CC)cc3)nc3[nH]cnc23)C1 (stereo unspecified)
- pIC50 (DMS-153): < 4.99
- pIC50 (BOKU): < 4.99
- pIC50 (MRK-nu-1): < 4.99
- pIC50 (HuTu80): < 4.99
- pIC50 (KARPAS-422): < 4.99
- pIC50 (RPMI-6666): < 4.99
- pIC50 (TE-441-T): < 4.99
- pIC50 (BC1 cell line): < 4.99
- pIC50 (NCI-H748): < 4.99
- pIC50 (YT): < 4.99
- pIC50 (KMS-12-PE): < 4.99
- pIC50 (MHH-CALL-2): < 4.99
- pIC50 (P31-FUJ): < 4.99
- pIC50 (TALL-1): < 4.99

Structure (SMILES): COc1ccc(N(C(=O)Oc2c(C)cccc2C)c2ccnc(Nc3ccc(N4CCN(C)CC4)cc3)n2)c(OC)c1
- pIC50 (DMS-153): < 5.29
- pIC50 (BOKU): 5.74
- pIC50 (MRK-nu-1): 5.33
- pIC50 (HuTu80): 6.76
- pIC50 (KARPAS-422): < 5.29
- pIC50 (RPMI-6666): < 5.29
- pIC50 (TE-441-T): < 5.29
- pIC50 (BC1 cell line): < 5.29
- pIC50 (NCI-H748): < 5.29
- pIC50 (YT): < 5.29
- pIC50 (KMS-12-PE): < 5.29
- pIC50 (MHH-CALL-2): < 5.29
- pIC50 (P31-FUJ): < 5.29
- pIC50 (TALL-1): < 5.29

Structure (SMILES): NC(=O)c1cccc(-c2cc(Nc3ccc(OC(F)(F)F)cc3)ncn2)c1
- pIC50 (DMS-153): < 5.89
- pIC50 (BOKU): < 5.89
- pIC50 (MRK-nu-1): < 5.89
- pIC50 (HuTu80): < 5.89
- pIC50 (KARPAS-422): < 5.89
- pIC50 (RPMI-6666): < 5.89
- pIC50 (TE-441-T): < 5.89
- pIC50 (BC1 cell line): < 5.89
- pIC50 (NCI-H748): < 5.89
- pIC50 (YT): < 5.89
- pIC50 (KMS-12-PE): < 5.89
- pIC50 (MHH-CALL-2): < 5.89
- pIC50 (P31-FUJ): < 5.89
- pIC50 (TALL-1): < 5.89

Structure (SMILES): O=C(NCCCNc1nc(Nc2cccc(NC(=O)N3CCCC3)c2)ncc1I)c1cccs1 [BX-795]
- pIC50 (A204): 5.94
- pIC50 (HuP-T3): < 5.30
- pIC50 (MKN-7): < 5.30
- pIC50 (NCI-H2405): 5.33
- pIC50 (LN-405): < 5.30
- pIC50 (ME-180): 5.47
- pIC50 (UACC-893): < 5.30
- pIC50 (EFO-21): < 5.30
- pIC50 (HCC1954): < 5.30
- pIC50 (8305C): 5.44
- pIC50 (SW48): 5.69
- pIC50 (BEN): < 5.30
- pIC50 (KYSE-410): < 5.30
- pIC50 (EW-22): 5.41
- pIC50 (ABC-1): 5.32
- pIC50 (Detroit 562): 5.41
- pIC50 (KP-N-YN): < 5.30
- pIC50 (639-V): < 5.30
- pIC50 (SCC-4): < 5.30
- pIC50 (SN12C): < 5.30
- pIC50 (786-0): < 5.30
- pIC50 (UO-31): < 5.30
- pIC50 (NCI-H810): 5.41
- pIC50 (VM-CUB-1): 5.69
- pIC50 (SBC-5): < 5.30
- pIC50 (CP50-MEL-B): < 5.30
- pIC50 (MEL-HO): < 5.30
- pIC50 (MDA-MB-157): 5.77
- pIC50 (T-24): < 5.30
- pIC50 (Calu-3): < 5.30
- pIC50 (HOP-92): 5.90
- pIC50 (SiHa): < 5.30
- pIC50 (A-431): 5.56
- pIC50 (TYK-nu): 5.53
- pIC50 (PANC-03-27): 5.38
- pIC50 (RO82-W-1): 5.36
- pIC50 (COLO-741): < 5.30
- pIC50 (HuO-3N1): 5.58
- pIC50 (MC-IXC): 5.54
- pIC50 (C32): 5.75
- pIC50 (Panc1005): < 5.30
- pIC50 (MKN-28): < 5.30

Structure (SMILES): C[C@@H](Oc1cc(-c2cnn(C3CCNCC3)c2)cnc1N)c1c(Cl)ccc(F)c1Cl [CRIZOTINIB]
- pIC50 (DMS-153): < 5.70
- pIC50 (BOKU): < 5.70
- pIC50 (MRK-nu-1): < 5.70
- pIC50 (HuTu80): < 5.70
- pIC50 (EW-22): < 5.70
- pIC50 (KARPAS-422): < 5.70
- pIC50 (RPMI-6666): < 5.70
- pIC50 (TE-441-T): < 5.70
- pIC50 (BC1 cell line): < 5.70
- pIC50 (NCI-H748): < 5.70
- pIC50 (YT): < 5.70
- pIC50 (KMS-12-PE): < 5.70
- pIC50 (MHH-CALL-2): 6.17
- pIC50 (P31-FUJ): < 5.70
- pIC50 (TALL-1): < 5.70

Structure (SMILES): CS(=O)(=O)N1CCN(Cc2cc3nc(-c4cccc5[nH]ncc45)nc(N4CCOCC4)c3s2)CC1 [PICTILISIB]
- pIC50 (A204): 6.28
- pIC50 (HuP-T3): < 5.40
- pIC50 (MKN-7): 5.57
- pIC50 (NCI-H2405): < 5.40
- pIC50 (LN-405): < 5.40
- pIC50 (ME-180): 5.71
- pIC50 (UACC-893): < 5.40
- pIC50 (EFO-21): < 5.40
- pIC50 (HCC1954): < 5.40
- pIC50 (8305C): < 5.40
- pIC50 (SW48): < 5.40
- pIC50 (BEN): < 5.40
- pIC50 (KYSE-410): < 5.40
- pIC50 (EW-22): 5.65
- pIC50 (ABC-1): < 5.40
- pIC50 (Detroit 562): < 5.40
- pIC50 (KP-N-YN): < 5.40
- pIC50 (639-V): 5.82
- pIC50 (SCC-4): < 5.40
- pIC50 (SN12C): < 5.40
- pIC50 (786-0): 5.59
- pIC50 (UO-31): < 5.40
- pIC50 (NCI-H810): < 5.40
- pIC50 (VM-CUB-1): < 5.40
- pIC50 (SBC-5): < 5.40
- pIC50 (CP50-MEL-B): < 5.40
- pIC50 (MEL-HO): 5.57
- pIC50 (MDA-MB-157): 5.55
- pIC50 (T-24): < 5.40
- pIC50 (Calu-3): 5.43
- pIC50 (HOP-92): 5.56
- pIC50 (SiHa): < 5.40
- pIC50 (A-431): 5.64
- pIC50 (TYK-nu): 5.71
- pIC50 (PANC-03-27): 5.82
- pIC50 (RO82-W-1): < 5.40
- pIC50 (COLO-741): < 5.40
- pIC50 (HuO-3N1): 6.19
- pIC50 (MC-IXC): < 5.40
- pIC50 (C32): 5.47
- pIC50 (Panc1005): < 5.40
- pIC50 (MKN-28): < 5.40

Structure (SMILES): COc1cc(N2CCC(N3CCN(C)CC3)CC2)ccc1Nc1ncc(Cl)c(Nc2ccccc2S(=O)(=O)C(C)C)n1 [TAE-684]
- pIC50 (DMS-153): < 5.70
- pIC50 (BOKU): < 5.70
- pIC50 (MRK-nu-1): < 5.70
- pIC50 (HuTu80): 6.32
- pIC50 (EW-22): < 5.70
- pIC50 (KARPAS-422): 5.96
- pIC50 (RPMI-6666): < 5.70
- pIC50 (TE-441-T): < 5.70
- pIC50 (BC1 cell line): < 5.70
- pIC50 (NCI-H748): < 5.70
- pIC50 (YT): < 5.70
- pIC50 (KMS-12-PE): < 5.70
- pIC50 (MHH-CALL-2): 7.53
- pIC50 (P31-FUJ): < 5.70
- pIC50 (TALL-1): < 5.70
